Assay results from ChEMBL document CHEMBL6103575, “Design, synthesis and evaluation of (E)-1-(4-(2-(1H-pyrazol-5-yl)vinyl)phenyl) derivatives as next generation selective RET inhibitors overcoming RET solvent front mutations (G810C/R)” (Eur J Med Chem, 2025).

Legend:
[1] = Induction of apoptosis in mouse BaF3 cells harboring CCDC6-RET G810R mutant assessed as viable cells at 100 nM incubated for 48 hrs by Annexin V-PE staining based flow cytometry analysis (Rvb =86.40%); assay type: functional; settings: read-out: Activity
[2] = Induction of apoptosis in mouse BaF3 cells harboring CCDC6-RET assessed as early apoptotic cells at 30 nM incubated for 48 hrs by Annexin V-PE staining based flow cytometry analysis (Rvb =6.21%); assay type: functional
[3] = Induction of apoptosis in mouse BaF3 cells harboring CCDC6-RET G810C mutant assessed as necrotic cells at 300 nM incubated for 48 hrs by Annexin V-PE staining based flow cytometry analysis (Rvb =0.48%); assay type: functional
[4] = system: Proto-oncogene tyrosine-protein kinase receptor Ret (Homo sapiens), P07949 [G810R]; experiment: Inhibition of RET (unknown origin) G810R mutant at 1 uM relative to control
Sequence of Proto-oncogene tyrosine-protein kinase receptor Ret (Homo sapiens), P07949 [G810R] (P07949 whole entry G810R): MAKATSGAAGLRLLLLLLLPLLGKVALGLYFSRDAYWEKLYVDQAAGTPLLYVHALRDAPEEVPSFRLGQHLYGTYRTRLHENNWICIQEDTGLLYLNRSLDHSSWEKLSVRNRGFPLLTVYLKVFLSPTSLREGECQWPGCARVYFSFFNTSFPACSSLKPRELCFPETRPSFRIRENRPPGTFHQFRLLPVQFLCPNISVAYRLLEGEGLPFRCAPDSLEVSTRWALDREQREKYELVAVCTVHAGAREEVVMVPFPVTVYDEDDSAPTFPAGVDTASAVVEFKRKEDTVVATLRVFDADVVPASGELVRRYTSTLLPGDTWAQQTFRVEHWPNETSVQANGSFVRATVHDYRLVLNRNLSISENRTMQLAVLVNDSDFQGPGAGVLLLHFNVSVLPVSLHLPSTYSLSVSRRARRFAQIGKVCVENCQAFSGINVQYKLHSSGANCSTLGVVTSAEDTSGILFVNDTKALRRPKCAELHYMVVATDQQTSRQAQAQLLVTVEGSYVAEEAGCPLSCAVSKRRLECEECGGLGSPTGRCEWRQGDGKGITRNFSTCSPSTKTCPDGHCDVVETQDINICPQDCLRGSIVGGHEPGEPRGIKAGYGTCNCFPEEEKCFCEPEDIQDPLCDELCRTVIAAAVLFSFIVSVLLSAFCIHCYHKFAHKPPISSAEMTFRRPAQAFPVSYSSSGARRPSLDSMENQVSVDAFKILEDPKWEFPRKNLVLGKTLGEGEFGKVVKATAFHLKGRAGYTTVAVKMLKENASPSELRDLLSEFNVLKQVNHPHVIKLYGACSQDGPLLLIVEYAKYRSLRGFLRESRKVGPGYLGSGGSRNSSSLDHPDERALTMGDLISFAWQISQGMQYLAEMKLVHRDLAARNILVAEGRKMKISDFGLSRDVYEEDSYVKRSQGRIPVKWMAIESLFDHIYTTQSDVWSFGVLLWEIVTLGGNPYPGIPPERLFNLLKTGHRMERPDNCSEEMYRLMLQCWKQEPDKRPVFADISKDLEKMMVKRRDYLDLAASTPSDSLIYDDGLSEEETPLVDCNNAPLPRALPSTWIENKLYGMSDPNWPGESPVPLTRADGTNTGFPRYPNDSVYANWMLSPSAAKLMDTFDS

BaF3 = experiment: Inhibition of RET phosphorylation in mouse BaF3 cells harboring CCDC6-RET G810R mutant incubated for 12 hrs by Western blotting analysis; assay type: cell-based; settings: dose <= 300.0 nM
[5] = Induction of cell cycle arrest in mouse BaF3 cells harboring CCDC6-RET G810C mutant assessed as accumulation of cells at G0/G1 phase at 30 nM incubated for 24 hrs by propidium iodide staining based analysis (reference value: 52.11%); assay type: functional
[6] = target: Platelet-derived growth factor receptor alpha (Homo sapiens, UniProt P16234); experiment: Inhibition of PDGFRalpha (unknown origin) at 1 uM relative to control
Sequence of Platelet-derived growth factor receptor alpha (P16234 whole entry): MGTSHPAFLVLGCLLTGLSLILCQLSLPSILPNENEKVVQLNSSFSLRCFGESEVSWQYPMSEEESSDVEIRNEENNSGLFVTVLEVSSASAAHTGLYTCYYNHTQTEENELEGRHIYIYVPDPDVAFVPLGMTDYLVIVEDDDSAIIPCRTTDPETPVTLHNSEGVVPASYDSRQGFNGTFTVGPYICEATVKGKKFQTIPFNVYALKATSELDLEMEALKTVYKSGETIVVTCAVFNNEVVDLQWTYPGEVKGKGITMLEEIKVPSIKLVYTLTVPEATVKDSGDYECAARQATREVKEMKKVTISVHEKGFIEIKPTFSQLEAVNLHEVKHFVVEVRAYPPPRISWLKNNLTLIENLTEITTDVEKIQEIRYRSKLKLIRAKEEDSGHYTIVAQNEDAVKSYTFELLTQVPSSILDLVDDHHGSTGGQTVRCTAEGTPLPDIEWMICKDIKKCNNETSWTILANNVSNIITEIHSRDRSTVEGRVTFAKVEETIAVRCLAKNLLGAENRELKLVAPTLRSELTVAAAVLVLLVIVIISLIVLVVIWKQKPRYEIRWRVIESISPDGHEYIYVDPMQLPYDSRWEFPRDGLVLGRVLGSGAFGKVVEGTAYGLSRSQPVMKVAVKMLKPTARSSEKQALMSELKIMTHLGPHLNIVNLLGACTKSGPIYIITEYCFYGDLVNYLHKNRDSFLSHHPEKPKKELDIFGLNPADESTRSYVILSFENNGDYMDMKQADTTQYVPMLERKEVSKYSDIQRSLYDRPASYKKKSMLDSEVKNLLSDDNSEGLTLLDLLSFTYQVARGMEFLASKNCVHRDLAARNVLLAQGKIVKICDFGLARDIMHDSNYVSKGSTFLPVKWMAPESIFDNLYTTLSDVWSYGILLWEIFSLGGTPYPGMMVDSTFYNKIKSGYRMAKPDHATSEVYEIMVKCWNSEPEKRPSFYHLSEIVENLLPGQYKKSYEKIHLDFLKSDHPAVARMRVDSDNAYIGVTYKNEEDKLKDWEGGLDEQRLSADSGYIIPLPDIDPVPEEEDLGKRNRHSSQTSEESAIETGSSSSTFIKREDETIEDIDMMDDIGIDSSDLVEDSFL

[7] = Induction of apoptosis in mouse BaF3 cells harboring CCDC6-RET G810R mutant assessed as early apoptotic cells at 100 nM incubated for 48 hrs by Annexin V-PE staining based flow cytometry analysis (Rvb =10 %); assay type: functional
[8] = Induction of apoptosis in mouse BaF3 cells harboring CCDC6-RET G810R mutant assessed as late apoptotic cells at 10 nM incubated for 48 hrs by Annexin V-PE staining based flow cytometry analysis (Rvb =3.21%); assay type: functional
[9] = Induction of apoptosis in mouse BaF3 cells harboring CCDC6-RET G810C mutant assessed as viable cells at 100 nM incubated for 48 hrs by Annexin V-PE staining based flow cytometry analysis (Rvb =86.47%); assay type: functional; settings: read-out: Activity
[10] = Induction of apoptosis in mouse BaF3 cells harboring CCDC6-RET assessed as necrotic cells at 30 nM incubated for 48 hrs by Annexin V-PE staining based flow cytometry analysis (Rvb =0.19%); assay type: functional
[11] = Induction of cell cycle arrest in mouse BaF3 cells harboring CCDC6-RET G810R mutant assessed as accumulation of cells at G2/M phase at 300 nM incubated for 24 hrs by propidium iodide staining based analysis (reference value: 33.61%); assay type: functional
[12] = Induction of cell cycle arrest in mouse BaF3 cells harboring CCDC6-RET G810C mutant assessed as accumulation of cells at S phase at 10 nM incubated for 24 hrs by propidium iodide staining based analysis (reference value: 12.47%); assay type: functional
[13] = Induction of apoptosis in mouse BaF3 cells harboring CCDC6-RET assessed as viable cells at 300 nM incubated for 48 hrs by Annexin V-PE staining based flow cytometry analysis (Rvb =91.16%); assay type: functional; settings: read-out: Activity
Ephrin type-A receptor 2 = Ephrin type-A receptor 2 (Homo sapiens, UniProt P29317); experiment: Inhibition of EPHA2 (unknown origin) at 1 uM relative to control
Sequence of Ephrin type-A receptor 2 (P29317 whole entry): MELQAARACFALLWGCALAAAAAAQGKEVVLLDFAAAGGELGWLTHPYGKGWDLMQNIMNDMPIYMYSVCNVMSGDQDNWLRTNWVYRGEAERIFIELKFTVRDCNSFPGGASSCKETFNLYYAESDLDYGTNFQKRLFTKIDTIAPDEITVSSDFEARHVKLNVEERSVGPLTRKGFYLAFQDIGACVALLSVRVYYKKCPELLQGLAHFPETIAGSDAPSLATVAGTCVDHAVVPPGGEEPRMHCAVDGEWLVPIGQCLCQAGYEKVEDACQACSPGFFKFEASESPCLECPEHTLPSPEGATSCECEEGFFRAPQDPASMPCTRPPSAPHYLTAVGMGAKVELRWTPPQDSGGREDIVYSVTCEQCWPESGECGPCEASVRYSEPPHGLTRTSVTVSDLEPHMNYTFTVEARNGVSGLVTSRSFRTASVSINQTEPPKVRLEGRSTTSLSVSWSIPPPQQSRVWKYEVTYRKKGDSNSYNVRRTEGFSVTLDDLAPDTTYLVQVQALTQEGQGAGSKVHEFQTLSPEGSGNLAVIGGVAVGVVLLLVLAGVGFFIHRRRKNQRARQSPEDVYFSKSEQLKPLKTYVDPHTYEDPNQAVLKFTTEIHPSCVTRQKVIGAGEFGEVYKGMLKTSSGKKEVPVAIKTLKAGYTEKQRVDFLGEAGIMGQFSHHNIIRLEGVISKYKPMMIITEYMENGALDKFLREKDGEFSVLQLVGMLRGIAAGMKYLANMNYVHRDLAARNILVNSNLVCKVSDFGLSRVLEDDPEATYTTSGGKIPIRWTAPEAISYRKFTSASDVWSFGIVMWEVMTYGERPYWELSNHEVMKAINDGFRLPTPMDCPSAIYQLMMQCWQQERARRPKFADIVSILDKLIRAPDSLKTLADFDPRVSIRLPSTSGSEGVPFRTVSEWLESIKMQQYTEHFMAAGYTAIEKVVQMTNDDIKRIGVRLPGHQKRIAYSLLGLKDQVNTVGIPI

[14] = Induction of cell cycle arrest in mouse BaF3 cells harboring CCDC6-RET G810C mutant assessed as accumulation of cells at G0/G1 phase at 10 nM incubated for 24 hrs by propidium iodide staining based analysis (reference value: 52.11%); assay type: functional
[15] = Induction of cell cycle arrest in mouse BaF3 cells harboring CCDC6-RET G810R mutant assessed as accumulation of cells at G2/M phase at 100 nM incubated for 24 hrs by propidium iodide staining based analysis (reference value: 33.61%); assay type: functional
[16] = Induction of apoptosis in mouse BaF3 cells harboring CCDC6-RET assessed as late apoptotic cells at 300 nM incubated for 48 hrs by Annexin V-PE staining based flow cytometry analysis (Rvb =2.44%); assay type: functional
[17] = Induction of cell cycle arrest in mouse BaF3 cells harboring CCDC6-RET assessed as accumulation of cells at S phase at 10 nM incubated for 24 hrs by propidium iodide staining based analysis (reference value: 13.27%); assay type: functional
[18] = Induction of apoptosis in mouse BaF3 cells harboring CCDC6-RET G810R mutant assessed as necrotic cells at 100 nM incubated for 48 hrs by Annexin V-PE staining based flow cytometry analysis (Rvb =0.30%); assay type: functional
[19] = target: T1, Ephrin type-B receptor 4 (Homo sapiens) (UniProt P54760); experiment: Inhibition of EPHB4 (unknown origin) at 1 uM relative to control
T1 sequence (whole entry): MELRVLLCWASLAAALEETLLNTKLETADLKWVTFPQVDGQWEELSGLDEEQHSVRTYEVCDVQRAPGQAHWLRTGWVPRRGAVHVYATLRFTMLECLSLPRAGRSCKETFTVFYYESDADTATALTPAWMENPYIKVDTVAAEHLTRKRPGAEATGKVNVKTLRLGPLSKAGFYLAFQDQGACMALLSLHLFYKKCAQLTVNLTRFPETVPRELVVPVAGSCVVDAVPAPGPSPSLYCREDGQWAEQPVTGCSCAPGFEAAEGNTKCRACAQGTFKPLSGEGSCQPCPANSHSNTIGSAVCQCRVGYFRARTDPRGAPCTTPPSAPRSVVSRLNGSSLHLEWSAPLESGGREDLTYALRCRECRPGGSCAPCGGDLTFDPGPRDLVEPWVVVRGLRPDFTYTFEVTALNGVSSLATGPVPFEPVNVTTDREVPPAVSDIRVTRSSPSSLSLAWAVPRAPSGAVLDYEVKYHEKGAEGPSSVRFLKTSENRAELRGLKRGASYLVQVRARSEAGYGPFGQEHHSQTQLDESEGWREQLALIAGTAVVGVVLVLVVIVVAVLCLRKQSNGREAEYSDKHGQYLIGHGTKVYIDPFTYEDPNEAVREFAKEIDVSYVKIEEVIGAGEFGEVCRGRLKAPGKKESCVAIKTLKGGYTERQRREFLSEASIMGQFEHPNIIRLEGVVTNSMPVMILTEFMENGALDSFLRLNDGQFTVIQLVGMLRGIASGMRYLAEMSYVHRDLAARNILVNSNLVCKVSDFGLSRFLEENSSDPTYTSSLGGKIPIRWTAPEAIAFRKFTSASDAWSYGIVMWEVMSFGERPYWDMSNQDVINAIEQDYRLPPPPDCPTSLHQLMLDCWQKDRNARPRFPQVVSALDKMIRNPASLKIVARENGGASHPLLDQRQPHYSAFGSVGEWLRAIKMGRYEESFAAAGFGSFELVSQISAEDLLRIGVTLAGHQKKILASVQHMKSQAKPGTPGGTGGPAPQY

For `COc1cncc(-c2cn[nH]c2/C=C/c2ccc(NC(=O)Nc3cc(C(C)(C)C(F)(F)F)on3)c(Cl)c2)c1`, the viability at 0.1 µM [1] was 74%, the Activity [2] was 22.34% and the Activity [3] was 0.03%. For the same molecule, the inhibition [4] was 74%, the inhibition (BaF3) was “Dose-dependent-effect” and the Activity [5] was 57.08%. It also gave an inhibition [6] of 101%, an Activity [7] of 2.7% and an Activity [8] of 3.29%. For the same molecule, the viability at 0.1 µM [9] was 60%, the Activity [10] was 0.03% and the Activity [11] was 16.09%. It also gave an Activity [12] of 12.31%, a viability at 0.3 µM [13] of 13.9% and an inhibition (Ephrin type-A receptor 2) of 100%. It also gave an Activity [14] of 52.74%, an Activity [15] of 28.68% and an Activity [16] of 1.39%. For the same molecule, the Activity [17] was 13.37%, the Activity [18] was 0.79% and the inhibition [19] was 92.9%.
